Measured values as given in ChEMBL document CHEMBL6153136, “Cyclic Peptide Natural Product Inspired Inhibitors of the Free-Living Amoeba Balamuthia mandrillaris” (J Nat Prod, 2025).
Converted amounts (≈) assume the structure as drawn. Square brackets hold non-standard residues; d marks the D form. Peptide text beside a SMILES is read from it. dOrn = NCCC[C@@H](N)C(=O)O; Orn = NCCC[C@H](N)C(=O)O

How the values were obtained:
Balamuthia mandrillaris [1] = test: Anti-amoebic activity against Balamuthia mandrillaris CDC V093 (ATCC 50209) assessed as reduction in amoebae viability measured after 72 hrs by luminescent based CellTiter-Glo assay; assay type: functional, organism-based
[2] = Hemolytic activity in human red blood cells assessed as hemolysis at 100 uM incubated for 1 hr by absorbance based assay relative to control; assay type: toxicity, cell-based, Erythrocyte; conditions: read-out: Activity
Lactococcus lactis = test: Antibacterial activity against Lactococcus lactis measured after 24 hrs; assay type: functional, organism-based
Naegleria fowleri = test: Anti-amoebic activity against Naegleria fowleri assessed as reduction in amoebae viability measured for 72 hrs by luminescent based CellTiter-Glo assay; assay type: functional, organism-based
Acanthamoeba castellanii = test: Anti-amoebic activity against Acanthamoeba castellanii assessed as reduction in amoebae viability measured for 72 hrs by luminescent based CellTiter-Glo assay; assay type: functional, organism-based
A549 = test: Cytotoxicity against human A549 cells assessed as reduction in cell viability incubated for 72 hrs by CellTiter-Glo reagent based assay; assay type: functional; conditions: A549, 72 h
[3] = Selectivity index, ratio of IC50 for cytotoxicity against human A549 cells to IC50 for anti-amoebic activity against Balamuthia mandrillaris CDC V093 (ATCC 50209) assessed as reduction in amoebae viability; assay type: toxicity, cell-based; conditions: read-out: Ratio IC50
Balamuthia mandrillaris [4] = test: Anti-amoebic activity against Balamuthia mandrillaris assessed as reduction in amoebae viability measured after 72 hrs by luminescent based CellTiter-Glo assay; assay type: functional, organism-based

Row | SMILES | IC50 (Balamuthia mandrillaris [1]) [µM] | hemolysis at 1 h, 100 µM [2] [%] | further results
1 | C[C@@H]1NC(=O)[C@@H](CCCNC(=N)N)NC(=O)[C@H]([C@@H](C)O)NC(=O)[C@@H](CCCN)NC(=O)[C@H](Cc2ccccc2)NC(=O)[C@@H](C)NC1=O | > 20 |  | 
2 | CC(C)[C@@H]1NC(=O)[C@@H](CCCCN)NC(=O)[C@H]([C@@H](C)O)NC(=O)[C@@H](CCCCN)NC(=O)[C@H](Cc2ccccc2)NC(=O)[C@@H](Cc2ccccc2)NC1=O | 3.9 | < 10 | 
3 | C=C(NC(=O)[C@@H](NC(=O)[C@H](Cc1c[nH]cn1)NC(=O)[C@@H](NC(=O)[C@H](CO)NC(=O)[C@@H]1CS[C@@H](C)[C@H]2NC(=O)C(=C)NC(=O)[C@H](NC(=O)[C@H](CCCCN)NC(=O)[C@H](CCSC)NC(=O)[C@H](CC(N)=O)NC(=O)[C@@H]3CS[C@@H](C)[C@@H](NC(=O)[C@H](CCCNN)NC(=O)[C@@H]4CS[C@@H](C)[C@@H](NC(=O)[C@@H]5CSC[C@@H](NC(=O)/C(=C\C)NC(=O)[C@@H](N)[C@@H](C)CC)C(=O)N[C@@H]([C@@H](C)CC)C(=O)NC(=C)C(=O)N[C@@H]([C@@H](C)CC)C(=O)N5)C(=O)N5CCC[C@H]5C(=O)NCC(=O)N4)C(=O)NCC(=O)N[C@@H](C)C(=O)N[C@@H]([C@@H](C)CC)C(=O)N[C@@H](CCSC)C(=O)NCC(=O)N3)[C@H](C)SC[C@H](NC2=O)C(=O)N[C@@H](Cc2c[nH]cn2)C(=O)N1)[C@@H](C)CC)C(C)C)C(=O)N[C@@H](CCCCN)C(=O)O |  |  | IC50 (Lactococcus lactis): 4.5 µg/mL (≈ 1.34 µM)
4 | CC(C)[C@@H]1NC(=O)[C@@H](C)NC(=O)[C@H]([C@@H](C)O)NC(=O)[C@@H](CCCN)NC(=O)[C@H](Cc2ccccc2)NC(=O)[C@@H](Cc2ccccc2)NC1=O | > 20 |  | 
5 | CC(C)[C@@H]1NC(=O)[C@@H](CCCNC(=N)N)NC(=O)[C@H]([C@@H](C)O)NC(=O)[C@@H](C)NC(=O)[C@H](Cc2ccccc2)NC(=O)[C@@H](Cc2ccccc2)NC1=O | 11.9 | < 10 | 
6 | CC(C)[C@@H]1NC(=O)[C@@H](CCCNC(=N)N)NC(=O)[C@H]([C@@H](C)O)NC(=O)[C@@H](CCCCN)NC(=O)[C@H](Cc2ccccc2)NC(=O)[C@@H](Cc2ccccc2)NC1=O | 4.1 | < 10 | 
7 | CC(C)[C@@H]1NC(=O)[C@@H](CO)NC(=O)[C@H](CCCNC(=N)N)NC(=O)[C@@H](Cc2ccccc2)NC1=O |  |  | IC50 (Naegleria fowleri): 6 µg/mL (≈ 12.3 µM)
8 | NCCC[C@@H]1NC(=O)[C@@H](CCCN)NC(=O)[C@H](Cc2ccccc2)NC(=O)[C@@H](Cc2ccccc2)NC(=O)[C@H](Cc2ccccc2)NC(=O)[C@@H](CCCN)NC1=O (cyclo(F[dF]F[dOrn][Orn][dOrn])) |  |  | IC50 (Acanthamoeba castellanii): 5.3 µg/mL (≈ 6.76 µM)
9 | CC(C)[C@H](N)C(=O)N[C@H](Cc1ccccc1)C(=O)N[C@@H](Cc1ccccc1)C(=O)N[C@H](CCCN)C(=O)N[C@H](C(=O)N[C@H](CCCNC(=N)N)C(=O)O)[C@@H](C)O (H-V[dF]F[dOrn]T[dR]-OH) | > 20 | < 10 | 
10 | CC(C)[C@@H]1NC(=O)[C@@H](CCCNC(=N)N)NC(=O)[C@H]([C@@H](C)O)NC(=O)[C@@H](CCCN)NC(=O)[C@H](C)NC(=O)[C@@H](Cc2ccccc2)NC1=O | > 20 |  | 
11 | C[C@@H]1NC(=O)[C@@H](CCCNC(=N)N)NC(=O)[C@H]([C@@H](C)O)NC(=O)[C@@H](CCCN)NC(=O)[C@H](Cc2ccccc2)NC(=O)[C@@H](Cc2ccccc2)NC1=O | > 20 |  | 
12 | CC(C)[C@@H]1NC(=O)[C@@H](CCCNC(=N)N)NC(=O)[C@H]([C@@H](C)O)NC(=O)[C@@H](CCCN)NC(=O)[C@H](Cc2ccccc2)NC(=O)[C@@H](Cc2ccccc2)NC1=O | 5 | < 10 | IC50 (A549): > 100 µM; selectivity ratio at 72 h [3]: > 20; IC50 (Balamuthia mandrillaris [4]): 4 µg/mL (≈ 5.23 µM)
13 | CC(C)[C@@H]1NC(=O)[C@@H](CCCCN)NC(=O)[C@H]([C@@H](C)O)NC(=O)[C@@H](CCCN)NC(=O)[C@H](Cc2ccccc2)NC(=O)[C@@H](Cc2ccccc2)NC1=O | 3.8 | < 10 | IC50 (A549): > 100 µM
14 | CC(C)[C@@H]1NC(=O)[C@@H](CCCNC(=N)N)NC(=O)[C@H](C)NC(=O)[C@@H](CCCN)NC(=O)[C@H](Cc2ccccc2)NC(=O)[C@@H](Cc2ccccc2)NC1=O (cyclo(A[dR]V[dF]F[dOrn])) | 8.5 | < 10 | IC50 (A549): > 100 µM
